Assay results taken from US20090018163A1, “Substituted Heterocyclic Ethers and Their Use in CNS Disorders” (Bristol-Myers Squibb Company, priority 2007, published 2009).
Where two headings read alike, the source gives them in different places.

What was measured:
NK-1 = target: T1, NK-1 (Homo sapiens, UniProt P25103); assay: NK1 radioligand binding assay; conditions: U373 membrane preparation, [125I]Substance P
T1 construct: 30 ul/well of a 2×U373 membrane preparation; endogenous in cells; host or cells: U373 cells (crude membrane preparation)
T1 sequence (P25103 whole entry): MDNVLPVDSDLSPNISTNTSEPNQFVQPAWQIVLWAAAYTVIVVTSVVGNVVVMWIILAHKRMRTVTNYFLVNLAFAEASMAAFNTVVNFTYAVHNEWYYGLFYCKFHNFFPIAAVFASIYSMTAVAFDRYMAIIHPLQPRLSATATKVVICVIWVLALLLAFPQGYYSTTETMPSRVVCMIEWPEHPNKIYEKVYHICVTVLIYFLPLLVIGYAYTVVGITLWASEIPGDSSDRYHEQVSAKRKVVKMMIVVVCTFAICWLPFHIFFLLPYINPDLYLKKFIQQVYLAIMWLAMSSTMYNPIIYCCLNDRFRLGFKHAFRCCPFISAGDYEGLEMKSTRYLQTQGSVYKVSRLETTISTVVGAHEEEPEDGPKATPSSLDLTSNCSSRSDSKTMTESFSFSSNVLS
Protocol: (§1) NK-1 Binding assay. Crude membrane suspensions were prepared for the NK1 and SERT radioligand binding assays from U373 cells or recombinant HEK-293 cells expressing hSERT, respectively. Cells were harvested from T-175 flasks as follows. The medium is removed from the flasks and the cells rinsed with HBSS without Ca and without Mg. The cells are then incubated for 5-10 minutes in 10 mM Tris-Cl, pH 7.5, 5 mM EDTA before the cells are lifted with a combination of pipetting and scraping, as needed. To prepare membranes, the cell suspension is collected into centrifuge bottles and homogenized for 30 seconds with a Polytron homogenizer. The suspension is centrifuged for 30 min @ 32,000×g, 4° C., then the supernatant is decanted and the pellet resuspended and homogenized in 50 mM Tris-Cl, pH 7.5, 1 mM EDTA for 10 seconds. The suspension is then centrifuged again for 30 min @ 32,000×g, 4° C. The supernatant is decanted and the pellet resuspended in 50 mM Tris-Cl, pH 7.5, 1 mM EDTA and briefly homogenized. A Bradford assay (Bio-rad) is performed and the membrane preparation diluted to 2 mg/ml with 50 mM Tris-Cl, pH 7.5, 1 mM EDTA. Aliquots are prepared, and then frozen and stored at −80° C.
NK1 radioligand binding assay. Compounds are dissolved in 100% DMSO at a concentration 100× the desired highest assay concentration, serially diluted 1:3 in 100% DMSO, and 0.6 ul/well of each solution is dispensed to a Nunc polypropylene, round bottom, 384 well plate. 100% inhibition is defined with 0.6 ul/well of 1 mM L-733,060 (Sigma L-137) dissolved in DMSO. 30 ul/well of a 2×U373 membrane preparation (267 ug/ml in 100 mM Tris-Cl, pH 7.5, 6 mM MgCl2, 0.2% (v/v) Sigma mammalian protease inhibitor cocktail (Sigma P-8340), and 4 ug/ml chymostatin, Sigma C-7268) and 30 ul/well of a 2× radioligand solution (400 pM [^125I]Substance P (Perkin Elmer NEX-190) in 1% (w/v) BSA (Sigma A-2153), 0.1 mg/ml bacitracin, Sigma B-0125) are added to the well and the reaction incubated for 1 hour at room temperature. The contents of the assay plate are then transferred to a Millipore MultiscreenHTS GF/B filter plate which has been pretreated with 0.5% PEI for at least one hour. The plate is vacuum filtered and washed with 7 washes of 100 ul/well of 20 mM Tris-Cl, pH 7.5, 0.5% (w/v) BSA chilled to 4° C. The filtration and washing is completed in less than 90 s. The plates are air-dried overnight, 12 ul/well of MicroScint scintillation fluid added, and the plates counted in a Trilux.
(§2) Data analysis. The raw data are normalized to percent inhibition using control wells defining 0% (DMSO only) and 100% (selective inhibitor) inhibition which are run on each plate. Each plate is run in triplicate, and the concentration response curve thus generated is fit using the four-parameter dose response equation, Y=Bottom+(Top-Bottom)/(1+10̂((LogIC50−X)*HillSlope)) in order to determine the IC50 value for each compound. The radioligand concentration chosen for each assay corresponds to the Kd concentration determined through saturation binding analysis for each assay.

hSERT = target: T2, hSERT (Homo sapiens, UniProt P31645); assay: SERT radioligand binding assay
T2 construct: expressed in transfected cells; host or cells: HEK-293 cells (crude membrane preparation)
T2 sequence (P31645 whole entry): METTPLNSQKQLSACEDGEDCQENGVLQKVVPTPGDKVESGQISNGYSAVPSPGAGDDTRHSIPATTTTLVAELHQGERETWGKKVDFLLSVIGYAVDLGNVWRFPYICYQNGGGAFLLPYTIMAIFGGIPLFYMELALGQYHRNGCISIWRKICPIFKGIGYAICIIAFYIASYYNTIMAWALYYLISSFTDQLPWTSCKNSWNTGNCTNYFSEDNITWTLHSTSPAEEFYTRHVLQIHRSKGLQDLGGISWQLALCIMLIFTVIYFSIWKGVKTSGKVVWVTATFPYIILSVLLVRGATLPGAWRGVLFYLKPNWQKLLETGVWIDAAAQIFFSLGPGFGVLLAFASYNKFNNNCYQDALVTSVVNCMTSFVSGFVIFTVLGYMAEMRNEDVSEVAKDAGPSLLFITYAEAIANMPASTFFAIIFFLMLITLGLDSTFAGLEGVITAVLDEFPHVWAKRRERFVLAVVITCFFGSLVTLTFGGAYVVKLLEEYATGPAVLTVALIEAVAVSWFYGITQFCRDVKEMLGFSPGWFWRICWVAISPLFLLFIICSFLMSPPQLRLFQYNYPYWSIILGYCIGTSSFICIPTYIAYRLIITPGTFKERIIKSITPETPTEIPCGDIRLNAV
Protocol: as §1
SERT radioligand binding assay. Compounds are dissolved in 100% DMSO at a concentration 100× the desired highest assay concentration, serially diluted 1:3 in 100% DMSO, and 0.4 ul/well of each solution is dispensed to a Nunc polypropylene, round bottom, 384 well plate. 100% inhibition is defined with 0.4 ul/well of 1 mM fluoxetine (Sigma F-132) dissolved in DMSO. 20 ul/well of a 2×HEK-hSERT membrane preparation (15 ug/ml in 50 mM Tris-Cl, pH 7.5, 120 mM NaCl, 5 mM KCl) and 20 ul/well of a 2× radioligand solution (520 pM [^125I]RTI-55 (Perkin-Elmer NEX-272) in 50 mM Tris-Cl, pH 7.5, 120 mM NaCl, 5 mM KCl) are added to each well and the reaction incubated for 1 hour at room temperature. The contents of the assay plate are then transferred to a Millipore MultiscreenHTS GF/B filter plate which has been pretreated with 0.5% PEI for at least one hour. The plate is vacuum filtered and washed with 7 washes of 100 ul/well of 50 mM Tris-Cl, pH 7.5, 120 mM NaCl, 5 mM KCl chilled to 4° C. The filtration and washing is completed in less than 90 s. The plates are air-dried overnight, 12 ul/well of MicroScint scintillation fluid added, and the plates counted in a Trilux.
as §2

[1] = HEK-hSERT membrane preparation, [125I]RTI-55, Table 1, read-out: SERT IC50
[2] = HEK-hSERT membrane preparation, [125I]RTI-55, Table 1a, single enantiomers, read-out: SERT IC50

With `Cc1cc(C(C)OCC2(c3ccc(F)cc3)CCN(C)CC2)c2nc(N(C)C)ccc2c1` (stereo not drawn) [Example 51] the IC50 (NK-1; Table 1) was 0.01 to 100 nM and the IC50 (hSERT; [1]) was 100 to 300 nM.
`CC(OCC1(c2ccc(F)cc2F)CCN(C)CC1)c1cc(C(F)(F)F)cc2cccnc12` (stereo not drawn) [Example 38] was tested, and the IC50 (NK-1; Table 1) was 0.01 to 100 nM and the IC50 (hSERT; [1]) was 0.01 to 100 nM.
`COc1ccc2nc(COCC3(c4ccccc4)CCNCC3)ccc2c1` [Example 11] gave an IC50 (NK-1; Table 1) greater than 300 nM and an IC50 (hSERT; [1]) of 0.01 to 100 nM.
For `Cc1cc(C(C)OCC2(c3ccc(F)cc3)CCN(C)CC2)c2ncccc2c1` (single isomer, unassigned) [Example 76], the IC50 (NK-1; Table 1a, single enantiomers) was 0.01 to 100 nM and the IC50 (hSERT; [2]) was 0.01 to 100 nM.
In the case of `CC(OCC1(c2ccc(F)cc2)CCN(C)CC1)c1cc(C(F)(F)F)cc2cccnc12` (single isomer, unassigned) [Example 70], the IC50 (NK-1; Table 1a, single enantiomers) is reported as 0.01 to 100 nM and the IC50 (hSERT; [2]) is reported as 0.01 to 100 nM.
Work on `CN(C)c1cc(COCC2(c3ccccc3)CCNCC2)nc2cc(C(F)(F)F)ccc12` [Example 18, N,N-dimethyl-2-(((4-phenylpiperidin-4-yl)methoxy)methyl)-7-(trifluoromethyl)quinolin-4-amine] yielded an IC50 (NK-1; Table 1) greater than 300 nM and an IC50 (hSERT; [1]) of 0.01 to 100 nM.
In the case of `CN1CCC(COCc2cc(Br)cc3cccnc23)(c2ccccc2)CC1` [Example 23], the IC50 (NK-1; Table 1) is reported as 0.01 to 100 nM and the IC50 (hSERT; [1]) is reported as 0.01 to 100 nM.
In the case of `Cc1cc(COCC2(c3ccccc3)CCNCC2)c2ccccc2n1` [Example 1, 2-methyl-4-(((4-phenylpiperidine-4-yl)methoxy)methyl)quinoline], the IC50 (NK-1; Table 1) is reported as greater than 300 nM and the IC50 (hSERT; [1]) is reported as 0.01 to 100 nM.
Work on `Cc1ccc2nc(COCC3(c4ccccc4)CCNCC3)cc(C)c2c1` [Example 19, 4,6-dimethyl-2-(((4-phenylpiperidin-4-yl)methoxy)methyl)quinoline] yielded an IC50 (NK-1; Table 1) greater than 300 nM and an IC50 (hSERT; [1]) of 0.01 to 100 nM.
With `N#Cc1cc(COCC2(c3ccccc3)CCNCC2)nc2ccccc12` [Example 14, 2-(((4-phenylpiperidin-4-yl)methoxy)methyl)quinoline-4-carbonitrile] the IC50 (NK-1; Table 1) was greater than 300 nM and the IC50 (hSERT; [1]) was 0.01 to 100 nM.
For `Cc1cc(COCC2(c3ccccc3)CCNCC2)nc2ccccc12` [Example 3], the IC50 (NK-1; Table 1) was 100 to 300 nM and the IC50 (hSERT; [1]) was 0.01 to 100 nM.
In the case of `COc1ccc2nc(COCC3(c4ccccc4)CCN(C)CC3)ccc2c1` [Example 12], the IC50 (NK-1; Table 1) is reported as greater than 300 nM and the IC50 (hSERT) is reported as 0.01 to 100 nM.
Work on `CC(OCC1(c2ccccc2)CCNCC1)c1cc(C(F)(F)F)cc2cccnc12` (stereo not drawn) [Example 35] yielded an IC50 (NK-1; Table 1) of 0.01 to 100 nM and an IC50 (hSERT; [1]) of 0.01 to 100 nM.
Molecule `Cc1cc(C(C)OCC2(c3ccc(F)cc3F)CCN(C)CC2)c2ncccc2c1` (stereo not drawn) [Example 43] has an IC50 (NK-1; Table 1) of 0.01 to 100 nM and an IC50 (hSERT; [1]) of 0.01 to 100 nM.
`CC(OCC1(c2ccc(F)cc2F)CCNCC1)c1cc(C(F)(F)F)cc2cccnc12` (stereo not drawn) [Example 37] showed an IC50 (NK-1; Table 1) of 0.01 to 100 nM and an IC50 (hSERT; [1]) of 0.01 to 100 nM.
With `CC(OCC1(c2ccc(F)cc2)CCNCC1)c1cc(C(F)(F)F)cc2cccnc12` (stereo not drawn) [Example 33] the IC50 (NK-1; Table 1) was 0.01 to 100 nM and the IC50 (hSERT; [1]) was 0.01 to 100 nM.
`FC(F)(F)c1ccc2ccc(COCC3(c4ccccc4)CCNCC3)nc2c1` [Example 46, 2-(((4-phenylpiperidin-4-yl)methoxy)methyl)-7-(trifluoromethyl)quinoline] gave an IC50 (NK-1; Table 1) greater than 300 nM and an IC50 (hSERT; [1]) of 0.01 to 100 nM.
Molecule `Cc1cc(COCC2(c3ccc(F)cc3F)CCNCC2)c2ncccc2c1` [Example 27] has an IC50 (NK-1; Table 1) of 0.01 to 100 nM and an IC50 (hSERT; [1]) of 0.01 to 100 nM.
